Measurements taken from the NIST ThermoML archive (doi:10.1021/je500420g).
± gives the expanded uncertainty stated by the source.

Test: xn = mol fraction of the nth substance listed
Conditions: 100 kPa, Liquid, Vibrating tube method

mass density (293.15 K, x1 = 0.01) | mass density (293.15 K, x1 = 0.03) | mass density (293.15 K, x1 = 0.05) | mass density (303.15 K, x1 = 0.01) | mass density (303.15 K, x1 = 0.03) | mass density (303.15 K, x1 = 0.05) | mass density (313.15 K, x1 = 0.01) | mass density (313.15 K, x1 = 0.03) | mass density (313.15 K, x1 = 0.05) | mass density (323.15 K, x1 = 0.01) | mass density (323.15 K, x1 = 0.03) | mass density (323.15 K, x1 = 0.05) | mass density (333.15 K, x1 = 0.01) | mass density (333.15 K, x1 = 0.03) | mass density (333.15 K, x1 = 0.05) | Compound
1048.3 ± 0.2 kg/m3 | 1144.2 ± 0.3 kg/m3 | 1237.9 ± 0.3 kg/m3 | 1044.8 ± 0.2 kg/m3 | 1139.8 ± 0.3 kg/m3 | 1232.8 ± 0.3 kg/m3 | 1040.7 ± 0.2 kg/m3 | 1135 ± 0.3 kg/m3 | 1227.5 ± 0.3 kg/m3 | 1036.1 ± 0.2 kg/m3 | 1130 ± 0.3 kg/m3 | 1222 ± 0.3 kg/m3 | 1031.2 ± 0.2 kg/m3 | 1124.7 ± 0.3 kg/m3 | 1216.3 ± 0.3 kg/m3 | [Cl-].[Rb+] [rubidium chloride] + O
1088.1 ± 0.2 kg/m3 | 1259.7 ± 0.4 kg/m3 | 1423.2 ± 0.5 kg/m3 | 1084.2 ± 0.2 kg/m3 | 1254.2 ± 0.4 kg/m3 | 1416.3 ± 0.5 kg/m3 | 1079.8 ± 0.2 kg/m3 | 1248.4 ± 0.4 kg/m3 | 1409.2 ± 0.5 kg/m3 | 1074.9 ± 0.3 kg/m3 | 1242.3 ± 0.4 kg/m3 | 1402 ± 0.5 kg/m3 | 1069.6 ± 0.3 kg/m3 | 1235.9 ± 0.4 kg/m3 | 1394.6 ± 0.5 kg/m3 | [I-].[Rb+] [rubidium iodide (RbI)] + O
1024.3 ± 0.2 kg/m3 | 1074.8 ± 0.2 kg/m3 | 1123.6 ± 0.3 kg/m3 | 1021.4 ± 0.2 kg/m3 | 1071.2 ± 0.2 kg/m3 | 1119.6 ± 0.3 kg/m3 | 1017.7 ± 0.2 kg/m3 | 1067 ± 0.2 kg/m3 | 1115.1 ± 0.3 kg/m3 | 1013.3 ± 0.2 kg/m3 | 1062.4 ± 0.2 kg/m3 | 1110.2 ± 0.3 kg/m3 | 1008.4 ± 0.2 kg/m3 | 1057.2 ± 0.3 kg/m3 | 1104.9 ± 0.3 kg/m3 | [Cl-].[K+] [potassium chloride] + O
1090.5 ± 0.2 kg/m3 | 1267.9 ± 0.4 kg/m3 | 1438.8 ± 0.5 kg/m3 | 1086.7 ± 0.2 kg/m3 | 1262.8 ± 0.4 kg/m3 | 1432.6 ± 0.5 kg/m3 | 1082.3 ± 0.3 kg/m3 | 1257.3 ± 0.4 kg/m3 | 1426 ± 0.5 kg/m3 | 1077.6 ± 0.3 kg/m3 | 1251.5 ± 0.4 kg/m3 | 1419.3 ± 0.5 kg/m3 | 1072.4 ± 0.3 kg/m3 | 1245.5 ± 0.4 kg/m3 | 1412.4 ± 0.5 kg/m3 | [Br-].[Cs+] [cesium bromide] + O
1053.3 ± 0.2 kg/m3 | 1160.8 ± 0.3 kg/m3 | 1268.1 ± 0.4 kg/m3 | 1049.8 ± 0.2 kg/m3 | 1156.3 ± 0.3 kg/m3 | 1262.7 ± 0.4 kg/m3 | 1045.7 ± 0.2 kg/m3 | 1151 ± 0.3 kg/m3 | 1257.2 ± 0.4 kg/m3 | 1041.2 ± 0.2 kg/m3 | 1146.1 ± 0.3 kg/m3 | 1251.4 ± 0.4 kg/m3 | 1036.2 ± 0.2 kg/m3 | 1140.7 ± 0.3 kg/m3 | 1245.5 ± 0.4 kg/m3 | [I-].[Li+] [lithium iodide] + O
1109.5 ± 0.3 kg/m3 | 1320.7 ± 0.4 kg/m3 | 1519.4 ± 0.6 kg/m3 | 1105.6 ± 0.3 kg/m3 | 1314.9 ± 0.4 kg/m3 | 1512.1 ± 0.6 kg/m3 | 1101 ± 0.3 kg/m3 | 1308.9 ± 0.4 kg/m3 | 1504.5 ± 0.6 kg/m3 | 1096 ± 0.3 kg/m3 | 1302.5 ± 0.4 kg/m3 | 1496.9 ± 0.6 kg/m3 | 1090.6 ± 0.3 kg/m3 | 1295.9 ± 0.4 kg/m3 | 1489.1 ± 0.6 kg/m3 | [Cs+].[I-] [cesium iodide] + O
1033.5 ± 0.2 kg/m3 | 1101.8 ± 0.3 kg/m3 | 1171.5 ± 0.3 kg/m3 | 1030.2 ± 0.2 kg/m3 | 1098 ± 0.3 kg/m3 | 1168 ± 0.3 kg/m3 | 1026.3 ± 0.2 kg/m3 | 1093.9 ± 0.3 kg/m3 | 1163.9 ± 0.3 kg/m3 | 1022 ± 0.2 kg/m3 | 1089.4 ± 0.3 kg/m3 | 1159.3 ± 0.3 kg/m3 | 1017.2 ± 0.2 kg/m3 | 1084.6 ± 0.3 kg/m3 | 1154.3 ± 0.3 kg/m3 | [Br-].[Li+] [lithium bromide] + O
1068.6 ± 0.2 kg/m3 | 1204.6 ± 0.3 kg/m3 | 1336.9 ± 0.4 kg/m3 | 1065 ± 0.2 kg/m3 | 1199.7 ± 0.3 kg/m3 | 1331 ± 0.4 kg/m3 | 1060.7 ± 0.2 kg/m3 | 1194.5 ± 0.3 kg/m3 | 1324.9 ± 0.4 kg/m3 | 1056 ± 0.2 kg/m3 | 1188.9 ± 0.3 kg/m3 | 1318.6 ± 0.4 kg/m3 | 1050.9 ± 0.2 kg/m3 | 1182.9 ± 0.3 kg/m3 | 1312.2 ± 0.4 kg/m3 | [Br-].[Rb+] [rubidium bromide] + O
1022.7 ± 0.2 kg/m3 |  |  | 1019.7 ± 0.2 kg/m3 |  |  | 1016 ± 0.2 kg/m3 |  |  | 1011.5 ± 0.2 kg/m3 |  |  | 1006.5 ± 0.2 kg/m3 |  |  | [F-].[Na+] [sodium fluoride] + O
1012.3 ± 0.2 kg/m3 | 1038.5 ± 0.2 kg/m3 | 1064.1 ± 0.2 kg/m3 | 1009.7 ± 0.2 kg/m3 | 1035.7 ± 0.2 kg/m3 | 1061.2 ± 0.2 kg/m3 | 1006.2 ± 0.2 kg/m3 | 1032.3 ± 0.2 kg/m3 | 1057.9 ± 0.2 kg/m3 | 1002.1 ± 0.2 kg/m3 | 1028.3 ± 0.2 kg/m3 | 1054 ± 0.2 kg/m3 | 997.4 ± 0.2 kg/m3 | 1023.8 ± 0.2 kg/m3 | 1049.8 ± 0.2 kg/m3 | [Cl-].[Li+] [lithium chloride] + O
1069.9 ± 0.2 kg/m3 | 1208.3 ± 0.3 kg/m3 | 1342.6 ± 0.4 kg/m3 | 1066.3 ± 0.2 kg/m3 | 1203.6 ± 0.3 kg/m3 | 1337 ± 0.4 kg/m3 | 1062.1 ± 0.2 kg/m3 | 1198.6 ± 0.3 kg/m3 | 1331.2 ± 0.4 kg/m3 | 1057.5 ± 0.2 kg/m3 | 1193.2 ± 0.3 kg/m3 | 1325.2 ± 0.4 kg/m3 | 1052.4 ± 0.2 kg/m3 | 1187.7 ± 0.3 kg/m3 | 1319.1 ± 0.4 kg/m3 | [Cl-].[Cs+] [cesium chloride] + O
